This note sets out measurements from US20230323028A1, “ADHESIVE PHOTOPROTECTIVE COMPOUNDS AND USES THEREOF” (SKINOSIVE, priority 2019, published 2023).

Data set [1] is described as follows: λmax UV absorbance in solution. It is filed as physicochemical. The procedure: λmax UV absorbance of diethylamino hydroxybenzoyl hexyl benzoate in ethanol/DMSO 9/1 was measured at 357 nm and λmax UV absorbance of Compound #16 was measured at 357 nm.
λmax UV absorbance of diethylamino hydroxybenzoyl hexyl benzoate in ethanol/DMSO 9/1 was measured at 357 nm and λmax UV absorbance of Compound #17 was measured at 357 nm.
λmax UV absorbance of Octocrylene in ethanol/DMSO 9/1 was measured at 305 nm and λmax UV absorbance of Compound #18 was measured at 293 nm.
λmax UV absorbance of Octocrylene in ethanol/DMSO 9/1 was measured at 305 nm and λmax UV absorbance of Compound #19 was measured at 308 nm.
λmax UV absorbance of Ecamsule in Ethanol/H2O/DMSO 5/3/2 was measured at 341 nm and λmax UV absorbance of Compound #20 was measured at 344 nm.
λmax UV absorbance of bemotrizinol in ethanol/benzyl alcohol/DMSO/Phenoxyethanol 63/18/10/9 was measured at 342 nm and λmax UV absorbance of Compound #21 was measured at 342 nm.
λmax UV absorbance of Octocrylene in ethanol was measured at 304 nm and Amax UV absorbance of Compound #23 was measured at 304 nm.

The nature of data set [2]: Bioadhesion in liquid phase: binding to cysteine, assayed by HPLC. The settings on record: 1 to 2 minutes, Ethanol-1×PBS pH 6.8 (pH 6.0 for compound #23). The procedure: The compounds bio adhesion was carried out in solution, for the protein binding, and for the specific binding of sulfhydryl-reactive chemical groups of cysteine. The compounds were mixed either with an equimolar solution of cysteine (two molar equivalent solution of cysteine for the compounds including two maleimides) or an excess of cysteine solution (five or ten times molar compound concentration) and were incubated 1 to 2 minutes in an Ethanol-1×PBS, pH 6.8 solution and in Ethanol-1×PBS, pH 6.0 solution for the compound #23.
The compound and the compound bound to the cysteine were identified by LC-MSD (Agilent 1260 Infinity II equipped with an Uptisphere strategy C18 or SunFire C18 column) and assayed by HPLC using an Agilent Infinity II Prime UHPLC UV detector system. The separation was achieved by using a gradient phase of water and acetonitrile on an Agilent Poroshell 120 EC-C18 column (3×100 mm, 2.7 μM).

Data set [3] can be described thus: Adhesion on polylysine matrix, non thiolated (UV absorbance of coated 96-well microplates). The settings on record: UV absorbance at 300 nm; overnight incubation in ethanol/PBS (90%/10%); washed 10 times with ethanol. The procedure: (§1) Polylysine and Polylysine enriched in SH by thiolation of primary amines using Traut's reagent were used for coating 96-well microplates. Compound #23 (OOM) incubated overnight under orbital agitation on the different matrices (n=3 for each condition) (uncoated wells were used as negative controls), in an ethanol/PBS (90%/10%) solution. After incubation, each microplate well was thoroughly washed 10 times with ethanol, before measuring UV absorbance. Whole UV/Visible absorbance spectrum from 220 to 1000 nm were measured in the center of each microplate well. In addition, specific UV absorbance at 300 nm was measured by matrix scan over the whole the well as a 10×10 matrix.

A further data set deals with pig skin. The data set can be described thus: UVB protection ex vivo on pig skin by autofluorescence quenching. The conditions noted are these: for UVB Fluorescence (Ex300/Em460), autofluorescence of pig skin: 4 h incubation at 37° C. in Dottisol, Mean ± SD, N = 3. As to the method: UVB protection has been assessed ex vivo on pig skin by measuring the autofluorescence quenching. OOM (Compound #23) and OCR (Octocrylene) were solubilized at the same molar concentration in Dottisol (isosorbide dimethyl ether), then covered 6.25 cm^2 skin square and incubated 4 hours at 37° C., washed or not with 10 mL Ethanol for 5 min on agitation. Then 7 mm diameter skin punches were cut and placed in a black 96-well plate. UVB protection was measured after respectively an excitation at 300 nm and a fluorescence emission was read at 460 nm.

Data set [4] can be described thus: Adhesion on thiolated polylysine matrix (UV absorbance of coated 96-well microplates). The settings on record: UV absorbance at 300 nm; overnight incubation in ethanol/PBS (90%/10%); washed 10 times with ethanol. The procedure: as §1
Where [5] appears, read: equimolar cysteine:compound solution (two molar equivalents for compounds with two maleimides).
The mark [6] stands for this setting: excess of cysteine (five or ten times molar compound concentration).
Setting [7] is: in ethanol/benzyl alcohol/DMSO/Phenoxyethanol 63/18/10/9.
The mark [8] stands for this setting: EtOH Wash (10 mL Ethanol, 5 min).

Structures are written as SMILES.

As for `CCN(CC)c1ccc(C(=O)c2ccccc2C(=O)OCCOCCNC(=O)CCN2C(=O)C=CC2=O)c(O)c1` [Compound #16, 2-[4-(diethylamino)-2-hydroxybenzoyl]-benzoic acid, 2-[2-[3-(2,5-dioxopyrrol-1-yl)propanoylamino]ethoxy]ethyl ester], the “λmax UV absorbance” value in data set [1] (in ethanol/DMSO 9/1) was 357 nm. Moreover, in data set [2] (setting [5]), the Cysteine-bound compound was found to be 75% and the Free compound is 25%. In data set [2] (setting [6]), this molecule showed a Cysteine-bound compound of 92% and a Free compound of 8%.

In the case of `CCN(CC)c1ccc(C(=O)c2ccccc2C(=O)OCCNC(=O)CCN2C(=O)C=CC2=O)c(O)c1` [Compound #17, 2-[4-(diethylamino)-2-hydroxy-benzoyl]benzoic acid, 2-[3-(2,5-dioxopyrrol-1-yl)propanoylamino]ethyl ester], the “λmax UV absorbance” value in data set [1] (in ethanol/DMSO 9/1) is reported as 357 nm. Also, in data set [2] (setting [5]), the Cysteine-bound compound is recorded as 78% and the Free compound is listed as 22%.

Consider `N#CC(C(=O)NCCNC(=O)CCN1C(=O)C=CC1=O)=C(c1ccccc1)c1ccccc1` [Compound #18, 2-cyano-N-[2-[3-(2,5-dioxopyrrol-1-yl)propanoylamino]ethyl]-3,3-diphenyl-prop-2-enamide], for which the “λmax UV absorbance” value in data set [1] (in ethanol/DMSO 9/1) is given as 293 nm. Moreover, the values for the Cysteine-bound compound in data set [2] (setting [5]) and in data set [2] (setting [6]) were 73% and 99%, respectively. For the same molecule, the Free compound is listed as 27% in data set [2] (setting [5]) and 1% in data set [2] (setting [6]).

`N#CC(C(=O)OCCS(=O)(=O)CCNC(=O)CCN1C(=O)C=CC1=O)=C(c1ccccc1)c1ccccc1` [Compound #19, 2-cyano-3,3-diphenyl-prop-2-enoate, 2-[2-[3-(2,5-dioxopyrrol-1-yl)propanoylamino]ethylsulfonyl]ethyl ester]: in data set [1] (in ethanol/DMSO 9/1), the “λmax UV absorbance” value came out at 308 nm. In data set [2] (setting [5]), the Cysteine-bound compound came out at 71% and the Free compound was 29%.

Turning to `CC1(C)C2CCC1(CS(=O)(=O)NCCNC(=O)CCN1C(=O)C=CC1=O)C(=O)/C2=C\c1ccc(/C=C2\C(=O)C3(CS(=O)(=O)NCCNC(=O)CCN4C(=O)C=CC4=O)CCC2C3(C)C)cc1` [Compound #20, 3-(2,5-dioxopyrrol-1-yl)-N-[2-[[(3Z)-3-[[4-[(Z)-[4-[2-[3-(2,5-dioxopyrrol-1-yl)propanoylamino]ethylsulfamoylmethyl]-7,7-dimethyl-3-oxo-norbornan-2-ylidene]methyl]phenyl]methylene]-7,7-dimethyl-2-oxo-norbornan-1-yl]methylsulfonylamino]ethyl]propanamide], in data set [1] (in Ethanol/H2O/DMSO 5/3/2), the “λmax UV absorbance” value is given as 344 nm. Moreover, the Cysteine-bound compound was 85% in data set [2] (setting [5]) and 100% in data set [2] (setting [6]). Moreover, the Free compound is given as 15% in data set [2] (setting [5]) and 0% in data set [2] (setting [6]).

For `COc1ccc(-c2nc(-c3ccc(OCCCNC(=O)CCN4C(=O)C=CC4=O)cc3O)nc(-c3ccc(OCCCNC(=O)CCN4C(=O)C=CC4=O)cc3O)n2)cc1` [Compound #21, 3-(2,5-dioxopyrrol-1-yl)-N-[3-[4-[4-[4-[3-[3-(2,5-dioxopyrrol-1-yl)propanoylamino]propoxy]-2-hydroxy-phenyl]-6-(4-methoxyphenyl)-1,3,5-triazin-2-yl]-3-hydroxy-phenoxy]propyl]propanamide], in data set [1] (setting [7]), the “λmax UV absorbance” value was determined as 342 nm.

Regarding `N#CC(C(=O)OCCCCCCCCNC(=O)CCN1C(=O)C=CC1=O)=C(c1ccccc1)c1ccccc1` [Compound #23, 8-(3-(2,5-dioxo-2,5-dihydro-1H-pyrrol-1-yl)propanamido)octyl 2-cyano-3,3-diphenylacrylate], the “bioadhesion on polylysine matrix (non thiolated)” value in data set [3] is “no bioadhesion”. Besides, the “UVB Fluorescence (Ex300/Em460), autofluorescence of pig skin” value with pig skin (setting [8]) came to 34870 ± 2729; with pig skin (No Wash), 25544 ± 3797. Further, the “reduction of UVB protection after ethanol wash compared to the initial protection before washing” value with pig skin (ethanol wash) was determined as 30%. The “bio adhesion on pig skin (conclusion)” value in the data set with pig skin (retention of UVB protection after ethanol wash) was “bio adhesive”. Further, in the data set on pig skin (same molar concentration, no wash), the “UVB protection of the pig skin compared with octocrylene (OCR)” value is on record as “more than two times higher”. In data set [1] (in ethanol), the “λmax UV absorbance” value is 304 nm. The “bio adhesion on thiolated polylysine matrix” value in data set [4] is listed as “showed a bio adhesion”. Also, the Cysteine-bound compound in data set [2] (setting [5]) and in data set [2] (setting [6]) was 100% in each case. For the same molecule, the Free compound in data set [2] (setting [5]) and in data set [2] (setting [6]) was 0% in each case.

As for `CC1(C)C2CCC1(CS(=O)(=O)O)C(=O)C2=Cc1ccc(C=C2C(=O)C3(CS(=O)(=O)O)CCC2C3(C)C)cc1` [Ecamsule, terephtalylidene dicamphor sulfonic acid, reference compound], the “λmax UV absorbance” value in data set [1] (in Ethanol/H2O/DMSO 5/3/2) is reported as 341 nm.

For the molecule `CCCCC(CC)COC(=O)C(C#N)=C(c1ccccc1)c1ccccc1` (stereo not shown) [Octocrylene, reference compound], the “UVB Fluorescence (Ex300/Em460), autofluorescence of pig skin” value with pig skin (setting [8]) is recorded as 201968 ± 11493; with pig skin (No Wash), 64781 ± 3246. Besides, the “UVB protection after the ethanol washing step” value in the data set with pig skin (ethanol wash) is “corresponds to the unprotected control”. Moreover, the “λmax UV absorbance” value was 304 nm in data set [1] (in ethanol) and 305 nm in data set [1] (in ethanol/DMSO 9/1). Also, the “bio adhesion on thiolated polylysine matrix” value in data set [4] is recorded as “did not show a bio adhesion”.

`CCCCC(CC)COc1ccc(-c2nc(-c3ccc(OC)cc3)nc(-c3ccc(OCC(CC)CCCC)cc3O)n2)c(O)c1` (stereo not shown) [bemotrizinol, reference compound]: the “λmax UV absorbance” value in data set [1] (setting [7]) is 342 nm.

Turning to `CCCCCCOC(=O)c1ccccc1C(=O)c1ccc(N(CC)CC)cc1O` [diethylamino hydroxybenzoyl hexyl benzoate, reference compound], in data set [1] (in ethanol/DMSO 9/1), the “λmax UV absorbance” value is on record as 357 nm.
